Structures can show the parent of a compound that is named as a salt.
Legend:
brain = assay: Transcriptional profiling, chronic dosing, EAE mice: brain; assay type: in vivo
Text: EAE induction is generally performed by immunization with brain extracts, CNS proteins (such as myelin basic protein), or peptides from such protein emulsified in an adjuvant such as complete Freund's adjuvant, e.g., as described in Linker et al., Brain. 2011 March 134(Pt3): 678-92. […] FIG. 17 depicts exemplary immunophenotyping panels used to analyze various immune cell populations (e.g., T cells, T regulatory cells, NK cells, B cells, myeloid cells). […] The number of independent mice whose tissues were harvested for transcript profiling studies and whose data passed QC is shown in TABLE 15. Animals were exposed to CO2 and whole blood collected via cardiac puncture. Two 100 μl aliquots of whole blood were collected in 1.5 mL microcentrifuge tubes and snap frozen in liquid nitrogen. Peripheral (liver, spleen, kidney and jejunum) and CNS brain (cerebellum, hippocampus, striatum and cortex) tissues were harvested and snap frozen in liquid nitrogen, with special care taken to collect tissues of similar size and from the same location. All samples were stored at -80° C. until RNA extraction was conducted. For RNA preparation, frozen tissues were placed in 2 mL RNAse-free 96-well blocks with 1.5 mL QIAzol Lysis Reagent (QIAgen) and a 3.2 mm stainless steel bead (BioSpec Products, Bartlesville, Okla.). Tissues were disrupted for four cycles of 45 seconds in a Mini-Beadbeater (Biospec Products). RNA was extracted in chloroform and the aqueous phase was mixed with an equal volume of 70% ethanol. Extracted RNA was applied to RNeasy 96 plates and purified by the spin method according to the manufacturer's protocol (RNeasy 96 Universal Tissue Protocol, QIAgen, Hilden Germany). […] Washing and staining of the hybridized arrays were completed as described in the GeneChip Expression analysis technical manual for HT plate arrays using the Genechip® Array Station (Affymetrix, Santa Clara, Calif.) with modifications as described in […] et al. The processed GeneChip® plate arrays were scanned using GeneTitan scanner (Affymetrix, Santa Clara, Calif.). Affymetrix scans were subject to quality control (QC) measures. These tests included a visual inspection of the distribution of raw signal intensities and an assessment of RNA degradation, relative log expression (RLE), and normalized unscaled standard error (NUSE). All sample scans that passed these QC metrics were included in the analysis. All CEL files were subjected to GC-content-based Robust Multi-array Average (GCRMA) normalization (version 2.20.0) (Irizarry R A, et al. Nucleic Acids Res 2003; 31:e15; Li C, et al. Genome Biol 2001; 2:[…]0032). […] Stat Appl Genet Mol Biol 2004; 3:Article3). […] Springer Science+Business Media 2005). Changes in gene expression were studied by applying a linear modeling approach to fit gene expression levels according to the defined groups of samples (e.g. DMF-, MMF-, and Vehicle-treated animals) and Bayesian posterior error analysis as implemented by Smyth (Smyth G K. Stat Appl Genet Mol Biol 2004; 3:Article3). The comparisons considered included: DMF-vs-MMF, DMF-vs-Vehicle, MMF-vs-Vehicle, and Vehicle-vs-Naïve.

spleen = assay: Transcriptional profiling, chronic dosing, EAE mice: spleen; assay type: in vivo; details: for Number of differentially expressed genes identified: Spleen: EAE, Chronic Dosing
Method: 2011 March 134(Pt3): 678-92. […] FIG. 17 depicts exemplary immunophenotyping panels used to analyze various immune cell populations (e.g., T cells, T regulatory cells, NK cells, B cells, myeloid cells). […] Animals were exposed to CO2 and whole blood collected via cardiac puncture. Two 100 μl aliquots of whole blood were collected in 1.5 mL microcentrifuge tubes and snap frozen in liquid nitrogen. Peripheral (liver, spleen, kidney and jejunum) and CNS brain (cerebellum, hippocampus, striatum and cortex) tissues were harvested and snap frozen in liquid nitrogen, with special care taken to collect tissues of similar size and from the same location. All samples were stored at -80° C. until RNA extraction was conducted. For RNA preparation, frozen tissues were placed in 2 mL RNAse-free 96-well blocks with 1.5 mL QIAzol Lysis Reagent (QIAgen) and a 3.2 mm stainless steel bead (BioSpec Products, Bartlesville, Okla.). Tissues were disrupted for four cycles of 45 seconds in a Mini-Beadbeater (Biospec Products). RNA was extracted in chloroform and the aqueous phase was mixed with an equal volume of 70% ethanol. Extracted RNA was applied to RNeasy 96 plates and purified by the spin method according to the manufacturer's protocol (RNeasy 96 Universal Tissue Protocol, QIAgen, Hilden Germany). […] Washing and staining of the hybridized arrays were completed as described in the GeneChip Expression analysis technical manual for HT plate arrays using the Genechip® Array Station (Affymetrix, Santa Clara, Calif.) with modifications as described in […] et al. The processed GeneChip® plate arrays were scanned using GeneTitan scanner (Affymetrix, Santa Clara, Calif.). Affymetrix scans were subject to quality control (QC) measures. These tests included a visual inspection of the distribution of raw signal intensities and an assessment of RNA degradation, relative log expression (RLE), and normalized unscaled standard error (NUSE). All sample scans that passed these QC metrics were included in the analysis. All CEL files were subjected to GC-content-based Robust Multi-array Average (GCRMA) normalization (version 2.20.0) (Irizarry R A, et al. Nucleic Acids Res 2003; 31:e15; Li C, et al. Genome Biol 2001; 2:[…]0032). […] Stat Appl Genet Mol Biol 2004; 3:Article3). […] Springer Science+Business Media 2005).

[1] = 100 mpk DMF-vs-90 mpk MMF, 7 h after last dosing
[2] = 100 mpk DMF-vs-90 mpk MMF, 12 h after last dosing
[3] = 100 mpk DMF-vs-Vehicle, 7 h after last dosing
[4] = 100 mpk DMF-vs-Vehicle, 12 h after last dosing
[5] = 90 mpk MMF-vs-Vehicle, 7 h after last dosing
[6] = 90 mpk MMF-vs-Vehicle, 12 h after last dosing

COC(=O)/C=C/C(=O)OC [DMF, dimethyl fumarate]
Number of differentially expressed genes identified: Brain (brain; [1]): 31
Number of differentially expressed genes identified: Brain (brain; [2]): 0
Number of differentially expressed genes identified: Brain (brain; [3]): 6
Number of differentially expressed genes identified: Brain (brain; [4]): 0
Number of differentially expressed genes identified: Spleen (spleen; [1]): 3
Number of differentially expressed genes identified: Spleen (spleen; [2]): 4
Number of differentially expressed genes identified: Spleen (spleen; [3]): 12
Number of differentially expressed genes identified: Spleen (spleen; [4]): 7
FC Ear1 (1421802_PM_at) (spleen; spleen, 100DMF-vs-90MMF, 7 h): −3.57
FC Epx (1449136_PM_at) (spleen; spleen, 100DMF-vs-90MMF, 7 h): −3.20
FC Prg2 (1422873_PM_at) (spleen; spleen, 100DMF-vs-90MMF, 7 h): −2.10
FC Angptl4 (1417130_PM_s_at) (spleen; spleen, 100DMF-vs-90MMF, 12 h): 1.97
FC Zbtb16 (1419874_PM_x_at) (spleen; spleen, 100DMF-vs-90MMF, 12 h): 1.95
FC Zbtb16 (1442025_PM_a_at) (spleen; spleen, 100DMF-vs-90MMF, 12 h): 2.29
FC Zbtb16 (1442026_PM_at) (spleen; spleen, 100DMF-vs-90MMF, 12 h): 2.36
FC 4930519L02Rik (1454269_PM_s_at) (spleen; spleen, 100DMF-vs-Veh, 7 h): 1.66
FC Adamts4 (1455965_PM_at) (spleen; spleen, 100DMF-vs-Veh, 7 h): −1.51
FC Aox1 (1419435_PM_at) (spleen; spleen, 100DMF-vs-Veh, 7 h): 1.88
FC Gsta3 (1423436_PM_at) (spleen; spleen, 100DMF-vs-Veh, 7 h): 2.02
FC Gsta3 (1423437_PM_at) (spleen; spleen, 100DMF-vs-Veh, 7 h): 1.94
FC LOC677317 /// Me1 1416632_PM_at (spleen; spleen, 100DMF-vs-Veh, 7 h): 1.61
FC Nqo1 (1423627_PM_at) (spleen; spleen, 100DMF-vs-Veh, 7 h): 2.27
FC Pir (1429001_PM_at) (spleen; spleen, 100DMF-vs-Veh, 7 h): 2.74
FC Srxn1 (1419942_PM_at) (spleen; spleen, 100DMF-vs-Veh, 7 h): 2.31
FC Srxn1 (1426875_PM_s_at) (spleen; spleen, 100DMF-vs-Veh, 7 h): 2.29
FC Srxn1 (1451680_PM_at) (spleen; spleen, 100DMF-vs-Veh, 7 h): 2.14
FC Steap4 (1425829_PM_a_at) (spleen; spleen, 100DMF-vs-Veh, 7 h): −1.88
FC Dbp (1418174_PM_at) (spleen; spleen, 100DMF-vs-Veh, 12 h): −1.65
FC Dbp (1438211_PM_s_at) (spleen; spleen, 100DMF-vs-Veh, 12 h): −1.78
FC Ighg (1424631_PM_a_at) (spleen; spleen, 100DMF-vs-Veh, 12 h): −1.52
FC Srxn1 (1419942_PM_at) (spleen; spleen, 100DMF-vs-Veh, 12 h): 1.85
FC Srxn1 (1426875_PM_s_at) (spleen; spleen, 100DMF-vs-Veh, 12 h): 1.90
FC Srxn1 (1451680_PM_at) (spleen; spleen, 100DMF-vs-Veh, 12 h): 1.60
Zbtb16 transcript signal, DMF-treated compared to MMF-treated animals (spleen; spleen, chronically dosed EAE mice, 12 h after final dosing): increased signal

COC(=O)/C=C/C(=O)O [MMF, monomethyl fumarate]
Number of differentially expressed genes identified: Brain (brain; [5]): 158
Number of differentially expressed genes identified: Brain (brain; [6]): 0
Number of differentially expressed genes identified: Spleen (spleen; [5]): 23
Number of differentially expressed genes identified: Spleen (spleen; [6]): 9
FC 1441413_PM_at (no gene symbol) (spleen; spleen, 100MMF-vs-Veh, 7 h): 1.54
FC 1451626_PM_x_at (no gene symbol) (spleen; spleen, 100MMF-vs-Veh, 7 h): 1.55
FC 2810037O22Rik (1428866_PM_at) (spleen; spleen, 100MMF-vs-Veh, 7 h): −1.88
FC 4930519L02Rik (1454269_PM_s_at) (spleen; spleen, 100MMF-vs-Veh, 7 h): 1.78
FC Aox1 (1419435_PM_at) (spleen; spleen, 100MMF-vs-Veh, 7 h): 1.91
FC Cacnb3 (1448656_PM_at) (spleen; spleen, 100MMF-vs-Veh, 7 h): −1.58
FC Figf /// LOC100047108 (1438953_PM_at) (spleen; spleen, 100MMF-vs-Veh, 7 h): 1.57
FC Gsta3 (1423436_PM_at) (spleen; spleen, 100MMF-vs-Veh, 7 h): 1.74
FC Gsta3 (1423437_PM_at) (spleen; spleen, 100MMF-vs-Veh, 7 h): 1.61
FC Higd1c /// Mettl7a1 /// Mettl7a2 1434150_PM_a_at (spleen; spleen, 100MMF-vs-Veh, 7 h): 1.57
FC Kcnh1 (1435994_PM_at) (spleen; spleen, 100MMF-vs-Veh, 7 h): −1.60
FC Lmcd1 1424596_PM_s_at (spleen; spleen, 100MMF-vs-Veh, 7 h): −1.74
FC Mmp16 (1437568_PM_at) (spleen; spleen, 100MMF-vs-Veh, 7 h): −1.56
FC Nqo1 (1423627_PM_at) (spleen; spleen, 100MMF-vs-Veh, 7 h): 2.35
FC Pdk4 (1417273_PM_at) (spleen; spleen, 100MMF-vs-Veh, 7 h): 1.68
FC Pir (1429001_PM_at) (spleen; spleen, 100MMF-vs-Veh, 7 h): 2.67
FC Socs3 (1416576_PM_at) (spleen; spleen, 100MMF-vs-Veh, 7 h): −1.79
FC Srxn1 (1419942_PM_at) (spleen; spleen, 100MMF-vs-Veh, 7 h): 2.29
FC Srxn1 (1426875_PM_s_at) (spleen; spleen, 100MMF-vs-Veh, 7 h): 2.26
FC Srxn1 (1451680_PM_at) (spleen; spleen, 100MMF-vs-Veh, 7 h): 2.05
FC Steap4 (1425829_PM_a_at) (spleen; spleen, 100MMF-vs-Veh, 7 h): −1.91
FC Steap4 (1460197_PM_a_at) (spleen; spleen, 100MMF-vs-Veh, 7 h): −2.48
FC Txnrd1 (1424486_PM_a_at) (spleen; spleen, 100MMF-vs-Veh, 7 h): 1.69
FC 2810037O22Rik (1428866_PM_at) (spleen; spleen, 100MMF-vs-Veh, 12 h): −1.55
FC Dbp (1418174_PM_at) (spleen; spleen, 100MMF-vs-Veh, 12 h): −1.85
FC Dbp (1438211_PM_s_at) (spleen; spleen, 100MMF-vs-Veh, 12 h): −1.90
FC Dclre1a (1432097_PM_a_at) (spleen; spleen, 100MMF-vs-Veh, 12 h): 1.56
FC Nqo1 (1423627_PM_at) (spleen; spleen, 100MMF-vs-Veh, 12 h): 2.05
FC Nr1d1 (1426464_PM_at) (spleen; spleen, 100MMF-vs-Veh, 12 h): −1.76
FC Nr1d2 (1416958_PM_at) (spleen; spleen, 100MMF-vs-Veh, 12 h): −1.53
FC Srxn1 (1419942_PM_at) (spleen; spleen, 100MMF-vs-Veh, 12 h): 1.73
FC Srxn1 (1426875_PM_s_at) (spleen; spleen, 100MMF-vs-Veh, 12 h): 1.75
